Laboratory results: patent publication US8999956B2, “N-[(het)arylalkyl)] pyrazole(thio)carboxamides and their heterosubstituted analogues” (Bayer Intellectual Property GmbH, priority 2010, dated 2015)
Where two headings read alike, the source gives them in different places.

Experiments:
[1] = test system: Puccinia triticina; assay: In vivo preventive test on Puccinia triticina (wheat); conditions: Puccinia triticina, 192 h, 500 ppm of active ingredient, evaluated 8 days after inoculation, read-out: Efficacy
[2] = test system: Pyrenophora teres; assay: In vivo preventive test on Pyrenophora teres (barley); conditions: 500 ppm of active ingredient, evaluated 7-9 days after inoculation
Method in brief: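 Compound formulated in N,N-dimethylformamide with alkylaryl polyglycol ether emulsifier and diluted in water, then sprayed on young barley plants at the stated application rate. Plants inoculated one day later with aqueous Pyrenophora teres spore suspension, testing preventive protection.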

[3] = test system: aflatoxines produced by Aspergillus parasiticus; assay: microbe, parasite or virus in culture; assay type: cell-based
[4] = log P by HPLC on reversed-phase column (EEC Directive 79/831 Annex V.A8); assay type: physicochemical
Experimental: In table 1, the log P values were determined in accordance with EEC Directive 79/831 Annex V.A8 by HPLC (High Performance Liquid Chromatography) on a reversed-phase column (C18), using the method described below: Temperature: 40° C.; […]

[5] = test system: Aspergillus parasiticus; assay: microbe, parasite or virus in culture; assay type: cell-based
[6] = test system: Alternaria solani; assay: In vivo preventive test on Alternaria solani (tomato); conditions: 500 ppm of active ingredient, evaluated 7 days after inoculation
Experimental: Solvent: 49 parts by weight of N,N-dimethylformamide Emulsifier: 1 part by weight of Alkylarylpolyglycolether To produce a suitable preparation of active compound, 1 part by weight of active compound is mixed with the stated amounts of solvent and emulsifier, and the concentrate is diluted with water to the desired concentration. To test for preventive activity, young plants are sprayed with the preparation of active compound at the stated rate of application. One day after this treatment, the plants are inoculated with an aqueous spore suspension of Alternaria solani.

SMILES	pest or weed control at 500 ppm [1]	Efficacy [2]	% Inhibition of Aflatoxin at 50 μM [3]	logP [4]	% Inhibition of fungal growth at 50 μM [5]	Efficacy [6]	% Inhibition of Aflatoxin at 50 μM ([3]; 50 µM)	% Inhibition of fungal growth at 50 μM ([5]; 50 µM)
CC(COc1ccc(Cl)cc1Cl)N(C(=O)c1cn(C)nc1C(F)F)C1CC1 (centres unmarked) [18 from WO-2010/012795, N-cyclopropyl-N-[1-(2,4-dichlorophenoxy)propan-2-yl]-3-(difluoromethyl)-1-methyl-1H-pyrazole-4-carboxamide, reference compound]	< 30%							
CC(CNC(=O)c1c(C(F)F)nn(C)c1F)Cc1cc(Cl)cc(Cl)c1 (centres unmarked) [Example 116]		100%	100%	3.83	82%	90%		
Cn1nc(C(F)F)c(C(=O)N(CCOc2c(Cl)cccc2Cl)C2CC2)c1F [Example 124, N-cyclopropyl-N-[2-(2,6-dichlorophenoxy)ethyl]-3-(difluoromethyl)-5-fluoro-1-methyl-1H-pyrazole-4-carboxamide]		90%		4.23		95%	99%	81%
Cn1nc(C(F)F)c(C(=O)NC(C)(C)CCc2cc(Cl)cc(Cl)c2)c1Cl [Example 125]		100%	96%	4.64	76%	95%		
Cn1nc(C(F)F)c(C(=O)NC(C)(C)CCc2cc(Cl)cc(Cl)c2)c1F [Example 126]		100%	100%	4.41	89%	90%		
Cn1nc(C(F)F)c(C(=O)NC(C)(C)CCc2cccc(C(F)(F)F)c2)c1F [Example 136]		95%	93%	3.94	71%	80%		
CN(CCCc1ccccc1Cl)C(=O)c1c(C(F)F)nn(C)c1F [Example 142]		95%	100%	3.06	84%	100%		
Cn1nc(C(F)F)c(C(=O)NC(C)(C)CCc2ccccc2Cl)c1F [Example 148]		95%	90%	3.79	67%	95%		
Cc1cccc(C)c1OCCNC(=O)c1c(C(F)F)nn(C)c1F [Example 151]		94%	100%	2.88	100%	90%		
CC(CNC(=O)c1c(C(F)F)nn(C)c1F)Cc1cc(Cl)ccc1Cl (centres unmarked) [Example 165]		100%	99%	3.65	83%	90%		
CC(COc1cc(Cl)ccc1Cl)NC(=O)c1c(C(F)F)nn(C)c1F (centres unmarked) [Example 173]		78%	100%	3.46	85%	90%		
CC(COc1cc(Cl)ccc1Cl)NC(=O)c1c(C(F)F)nn(C)c1Cl (centres unmarked) [Example 174]		95%	85%	3.69	67%	100%		
CCC(COc1cc(Cl)ccc1Cl)NC(=O)c1c(C(F)F)nn(C)c1F (centres unmarked) [Example 175]		95%	100%	3.83	92%	95%		
Cn1nc(C(F)F)c(C(=O)NC(C)(C)CCc2cc(Cl)ccc2Cl)c1F [Example 178]		100%	100%	4.26	88%	95%		
Cn1nc(C(F)F)c(C(=O)NCCCc2ccc(Cl)cc2Cl)c1F [Example 180]		100%	100%	3.46	100%	90%		
CC(CCc1ccc(Cl)cc1Cl)N(C(=O)c1c(C(F)F)nn(C)c1Cl)C1CC1 (centres unmarked) [Example 183]		100%	82%	4.72	79%	95%		
CC(COc1ccc(Cl)cc1Cl)NC(=O)c1c(C(F)F)nn(C)c1F (centres unmarked) [Example 189]		100%	100%	3.58	94%	90%		
CC(COc1ccc(Cl)cc1Cl)NC(=O)c1c(C(F)F)nn(C)c1Cl (centres unmarked) [Example 190]		95%	88%	3.76	77%	90%		
CC(CSc1ccc(Cl)cc1Cl)NC(=O)c1c(C(F)F)nn(C)c1F (centres unmarked) [Example 191]		100%	100%	3.76	100%	95%		
CC(CSc1ccc(Cl)cc1Cl)NC(=O)c1c(C(F)F)nn(C)c1Cl (centres unmarked) [Example 192]		100%	100%	4.01	91%	95%		
Cn1nc(C(F)F)c(C(=O)NC(COc2ccc(Cl)cc2Cl)C2CC2)c1F (centres unmarked) [Example 193]		94%	100%	3.92	92%	95%		
CC(CCc1c(Cl)cc(Cl)cc1Cl)N(C(=O)c1c(C(F)F)nn(C)c1Cl)C1CC1 (centres unmarked) [Example 214]		100%	100%	4.31	93%	80%		
CCC(COc1cccc2ccccc12)NC(=O)c1c(C(F)F)nn(C)c1F (centres unmarked) [Example 222]		90%	91%	3.71	78%	90%		
Cc1cccc(OC2CCCC2NC(=O)c2c(C(F)F)nn(C)c2F)c1 (centres unmarked) [Example 259]		78%	97%	3.52	82%	90%		
Cn1nc(C(F)F)c(C(=O)N(C[Si](C)(C)Cc2ccc(Cl)cc2Cl)C2CC2)c1Cl [Example 297]		100%	100%	5.19	85%	100%		
CCC(C)C(C)N(C(=O)c1c(C(F)F)nn(C)c1Cl)C1CC1 (centres unmarked) [Example 303]		100%	100%	3.52	90%	80%		
CCC1CCCCC1CNC(=O)c1c(C(F)F)nn(C)c1F (centres unmarked) [Example 364]		80%	99%	3.49	81%	95%		
